Assay results from US12343326B2, “Psychoactive medicines and their use for treating psychiatric and neurological conditions and disorders” (Transcend Therapeutics, Inc., priority 2021, dated 2025).

Tests used:
Test in all cases: β-arrestin based GPCR screen (PathHunter / GPCRmax), agonist mode
Type in all cases: cell-based
Design in all cases: host or cells: PathHunter cell lines
168 GPCRs [1] = target: 168 GPCRs (Homo sapiens, UniProt O43603)
Method: (§1) For agonist determination, cells were incubated with sample to induce response. […] Vehicle concentration was 1%.

168 GPCRs [2] = target: 168 GPCRs (Homo sapiens, UniProt P21917)
Method: as §1

168 GPCRs [3] = target: 168 GPCRs (Homo sapiens, UniProt P23945); details: FSHR
Method: as §1

168 GPCRs [4] = target: 168 GPCRs (Homo sapiens, UniProt P25090)
Method: as §1

168 GPCRs [5] = target: 168 GPCRs (Homo sapiens, UniProt P28222); details: HTR1B
Method: as §1

168 GPCRs [6] = target: 168 GPCRs (Homo sapiens, UniProt P30518); details: AVPR2, Agonist
Method: as §1

168 GPCRs [7] = target: T1, 168 GPCRs (Homo sapiens, UniProt P30939); details: HTR1F
T1 sequence (P30939 1-366): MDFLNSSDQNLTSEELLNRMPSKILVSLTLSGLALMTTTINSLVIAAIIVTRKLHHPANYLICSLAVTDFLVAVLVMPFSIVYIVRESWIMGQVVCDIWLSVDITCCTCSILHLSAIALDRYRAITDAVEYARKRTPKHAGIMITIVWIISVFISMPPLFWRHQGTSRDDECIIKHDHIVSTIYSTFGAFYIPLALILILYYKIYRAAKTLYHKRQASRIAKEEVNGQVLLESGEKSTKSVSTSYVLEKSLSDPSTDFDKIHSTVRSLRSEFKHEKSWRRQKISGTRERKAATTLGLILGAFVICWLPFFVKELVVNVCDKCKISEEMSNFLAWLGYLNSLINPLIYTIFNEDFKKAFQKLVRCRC
Method: as §1

168 GPCRs [8] = target: 168 GPCRs (Homo sapiens, UniProt P32241)
Method: as §1

168 GPCRs [9] = target: 168 GPCRs (Homo sapiens, UniProt P41586); details: ADCYAP1R1, Agonist
Method: as §1

168 GPCRs [10] = target: 168 GPCRs (Homo sapiens, UniProt P46092); details: CCR10, Agonist
Method: as §1

168 GPCRs [11] = target: 168 GPCRs (Homo sapiens, UniProt P47901); details: AVPR1B, Agonist
Method: as §1

168 GPCRs [12] = target: 168 GPCRs (Homo sapiens, UniProt P48146)
Method: as §1

168 GPCRs [13] = target: 168 GPCRs (Homo sapiens, UniProt P49682)
Method: as §1

168 GPCRs [14] = target: 168 GPCRs (Homo sapiens, UniProt P51582)
Method: as §1

168 GPCRs [15] = target: 168 GPCRs (Homo sapiens, UniProt P51686); details: CCR9, Agonist
Method: as §1

168 GPCRs [16] = target: 168 GPCRs (Homo sapiens, UniProt Q15077)
Method: as §1

168 GPCRs [17] = target: 168 GPCRs (Homo sapiens, UniProt Q92847); details: GHSR
Method: as §1

168 GPCRs [18] = target: 168 GPCRs (Homo sapiens, UniProt Q96LB1)
Method: as §1

168 GPCRs [19] = target: 168 GPCRs (Homo sapiens, UniProt Q9H3N8)
Method: as §1

168 GPCRs [20] = target: 168 GPCRs (Homo sapiens, UniProt Q9HC97)
Method: as §1

168 GPCRs (Homo sapiens, UniProt P28222), sequence (P28222 whole entry): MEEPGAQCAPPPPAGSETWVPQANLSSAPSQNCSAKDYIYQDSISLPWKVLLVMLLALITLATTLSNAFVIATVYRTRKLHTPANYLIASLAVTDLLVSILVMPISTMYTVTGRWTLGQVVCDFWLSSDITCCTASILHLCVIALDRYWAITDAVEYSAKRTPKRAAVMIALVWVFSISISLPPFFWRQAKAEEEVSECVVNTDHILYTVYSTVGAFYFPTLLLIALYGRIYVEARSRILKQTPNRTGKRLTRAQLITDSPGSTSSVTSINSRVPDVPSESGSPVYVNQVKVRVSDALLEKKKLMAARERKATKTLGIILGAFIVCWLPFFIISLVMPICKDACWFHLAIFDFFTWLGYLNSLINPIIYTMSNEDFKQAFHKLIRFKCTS
168 GPCRs (Homo sapiens, UniProt P49682), sequence (P49682 whole entry): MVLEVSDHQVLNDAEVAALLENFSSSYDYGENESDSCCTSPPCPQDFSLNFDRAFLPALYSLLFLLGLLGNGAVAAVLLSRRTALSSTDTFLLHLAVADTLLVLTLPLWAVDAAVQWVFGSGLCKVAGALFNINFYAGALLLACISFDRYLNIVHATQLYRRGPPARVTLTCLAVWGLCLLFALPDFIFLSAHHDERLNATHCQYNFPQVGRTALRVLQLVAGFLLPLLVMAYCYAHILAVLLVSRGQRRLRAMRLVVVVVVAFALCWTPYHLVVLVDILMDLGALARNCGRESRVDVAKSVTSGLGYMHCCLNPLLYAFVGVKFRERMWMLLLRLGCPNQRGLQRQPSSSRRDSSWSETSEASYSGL
168 GPCRs (Homo sapiens, UniProt P46092), sequence (P46092 whole entry): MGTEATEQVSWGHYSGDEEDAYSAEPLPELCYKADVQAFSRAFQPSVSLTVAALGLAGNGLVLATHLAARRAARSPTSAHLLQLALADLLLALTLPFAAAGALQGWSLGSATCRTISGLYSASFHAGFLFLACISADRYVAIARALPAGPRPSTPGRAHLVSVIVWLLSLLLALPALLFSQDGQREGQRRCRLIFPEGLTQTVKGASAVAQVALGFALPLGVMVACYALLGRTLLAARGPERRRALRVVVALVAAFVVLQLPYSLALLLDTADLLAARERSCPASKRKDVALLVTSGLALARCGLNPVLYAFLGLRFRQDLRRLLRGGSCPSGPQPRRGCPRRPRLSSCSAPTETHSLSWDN
168 GPCRs (Homo sapiens, UniProt P23945), sequence (P23945 18-695): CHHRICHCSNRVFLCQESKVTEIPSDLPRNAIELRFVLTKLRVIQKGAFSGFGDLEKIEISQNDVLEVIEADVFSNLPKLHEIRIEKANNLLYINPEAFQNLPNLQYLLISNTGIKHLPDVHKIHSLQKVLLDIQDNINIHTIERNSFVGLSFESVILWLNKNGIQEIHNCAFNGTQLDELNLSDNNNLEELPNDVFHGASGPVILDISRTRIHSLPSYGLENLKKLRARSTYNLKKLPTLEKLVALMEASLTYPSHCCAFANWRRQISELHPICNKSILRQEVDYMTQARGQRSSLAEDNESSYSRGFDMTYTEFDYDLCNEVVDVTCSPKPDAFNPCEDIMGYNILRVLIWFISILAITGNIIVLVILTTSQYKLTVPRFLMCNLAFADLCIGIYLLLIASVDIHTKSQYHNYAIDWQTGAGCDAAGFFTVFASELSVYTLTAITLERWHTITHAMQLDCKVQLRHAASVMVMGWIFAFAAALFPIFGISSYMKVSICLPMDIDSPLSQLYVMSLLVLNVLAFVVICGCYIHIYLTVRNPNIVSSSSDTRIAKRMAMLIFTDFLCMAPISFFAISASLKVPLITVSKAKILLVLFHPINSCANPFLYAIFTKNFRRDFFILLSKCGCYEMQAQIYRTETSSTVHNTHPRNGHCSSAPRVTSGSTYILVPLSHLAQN
168 GPCRs (Homo sapiens, UniProt Q15077), sequence (Q15077 whole entry): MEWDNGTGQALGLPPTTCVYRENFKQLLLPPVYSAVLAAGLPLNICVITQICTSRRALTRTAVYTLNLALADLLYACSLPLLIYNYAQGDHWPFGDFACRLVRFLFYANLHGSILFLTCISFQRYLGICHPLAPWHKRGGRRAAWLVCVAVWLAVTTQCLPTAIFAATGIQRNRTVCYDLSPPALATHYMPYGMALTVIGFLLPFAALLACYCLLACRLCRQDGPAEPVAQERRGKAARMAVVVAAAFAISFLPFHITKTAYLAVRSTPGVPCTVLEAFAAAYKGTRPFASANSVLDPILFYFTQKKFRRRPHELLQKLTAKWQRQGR
168 GPCRs (Homo sapiens, UniProt P51582), sequence (P51582 whole entry): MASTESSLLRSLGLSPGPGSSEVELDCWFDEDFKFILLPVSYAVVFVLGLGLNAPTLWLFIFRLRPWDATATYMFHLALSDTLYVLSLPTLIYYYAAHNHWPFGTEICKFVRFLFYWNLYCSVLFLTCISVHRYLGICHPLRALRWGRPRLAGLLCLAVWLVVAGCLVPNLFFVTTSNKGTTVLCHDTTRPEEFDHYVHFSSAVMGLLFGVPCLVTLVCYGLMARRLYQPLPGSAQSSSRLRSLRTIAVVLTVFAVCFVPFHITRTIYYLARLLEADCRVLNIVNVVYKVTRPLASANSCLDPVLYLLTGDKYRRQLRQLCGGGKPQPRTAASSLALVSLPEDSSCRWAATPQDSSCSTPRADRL
168 GPCRs (Homo sapiens, UniProt P30518), sequence (P30518 whole entry): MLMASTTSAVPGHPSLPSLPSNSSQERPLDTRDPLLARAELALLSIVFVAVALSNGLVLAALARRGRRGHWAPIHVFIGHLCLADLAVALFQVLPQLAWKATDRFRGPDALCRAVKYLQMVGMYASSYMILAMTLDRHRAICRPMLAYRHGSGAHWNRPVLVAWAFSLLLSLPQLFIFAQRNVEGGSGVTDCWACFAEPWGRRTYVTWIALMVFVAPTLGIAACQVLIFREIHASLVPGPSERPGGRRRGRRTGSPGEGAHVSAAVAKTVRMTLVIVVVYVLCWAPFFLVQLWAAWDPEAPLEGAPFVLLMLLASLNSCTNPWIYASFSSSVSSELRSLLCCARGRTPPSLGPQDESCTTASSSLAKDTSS
168 GPCRs (Homo sapiens, UniProt P51686), sequence (P51686 whole entry): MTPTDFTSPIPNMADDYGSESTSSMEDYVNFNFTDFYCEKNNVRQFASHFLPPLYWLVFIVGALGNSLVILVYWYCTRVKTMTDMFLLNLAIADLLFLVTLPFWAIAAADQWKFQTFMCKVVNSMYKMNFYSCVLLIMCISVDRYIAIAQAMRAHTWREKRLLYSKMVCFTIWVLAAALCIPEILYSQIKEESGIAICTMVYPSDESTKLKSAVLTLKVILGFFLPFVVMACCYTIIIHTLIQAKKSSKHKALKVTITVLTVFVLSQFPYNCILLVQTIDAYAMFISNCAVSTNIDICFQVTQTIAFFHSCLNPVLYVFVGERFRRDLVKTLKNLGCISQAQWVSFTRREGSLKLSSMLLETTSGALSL
168 GPCRs (Homo sapiens, UniProt P25090), sequence (P25090 whole entry): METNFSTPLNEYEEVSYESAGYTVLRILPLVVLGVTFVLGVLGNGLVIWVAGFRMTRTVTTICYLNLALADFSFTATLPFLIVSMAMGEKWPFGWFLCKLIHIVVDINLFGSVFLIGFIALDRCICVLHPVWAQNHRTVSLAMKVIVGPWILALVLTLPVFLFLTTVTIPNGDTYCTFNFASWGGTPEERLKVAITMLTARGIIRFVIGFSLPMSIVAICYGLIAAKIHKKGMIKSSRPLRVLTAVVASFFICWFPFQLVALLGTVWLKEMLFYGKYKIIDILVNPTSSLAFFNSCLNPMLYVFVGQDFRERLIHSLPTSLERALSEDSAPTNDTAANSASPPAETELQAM
168 GPCRs (Homo sapiens, UniProt P32241), sequence (P32241 31-457): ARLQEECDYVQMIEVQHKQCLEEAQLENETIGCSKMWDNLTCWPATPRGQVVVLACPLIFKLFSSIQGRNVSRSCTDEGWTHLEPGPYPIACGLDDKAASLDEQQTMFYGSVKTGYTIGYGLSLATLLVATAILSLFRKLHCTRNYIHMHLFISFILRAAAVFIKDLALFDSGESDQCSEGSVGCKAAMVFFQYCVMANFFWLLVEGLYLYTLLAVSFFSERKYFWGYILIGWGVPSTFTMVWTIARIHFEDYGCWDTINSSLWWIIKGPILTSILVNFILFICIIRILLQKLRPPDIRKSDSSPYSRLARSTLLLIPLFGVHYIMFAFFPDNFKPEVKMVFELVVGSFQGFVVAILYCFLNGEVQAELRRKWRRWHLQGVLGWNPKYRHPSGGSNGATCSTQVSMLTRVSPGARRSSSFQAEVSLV
168 GPCRs (Homo sapiens, UniProt P41586), sequence (P41586 21-468): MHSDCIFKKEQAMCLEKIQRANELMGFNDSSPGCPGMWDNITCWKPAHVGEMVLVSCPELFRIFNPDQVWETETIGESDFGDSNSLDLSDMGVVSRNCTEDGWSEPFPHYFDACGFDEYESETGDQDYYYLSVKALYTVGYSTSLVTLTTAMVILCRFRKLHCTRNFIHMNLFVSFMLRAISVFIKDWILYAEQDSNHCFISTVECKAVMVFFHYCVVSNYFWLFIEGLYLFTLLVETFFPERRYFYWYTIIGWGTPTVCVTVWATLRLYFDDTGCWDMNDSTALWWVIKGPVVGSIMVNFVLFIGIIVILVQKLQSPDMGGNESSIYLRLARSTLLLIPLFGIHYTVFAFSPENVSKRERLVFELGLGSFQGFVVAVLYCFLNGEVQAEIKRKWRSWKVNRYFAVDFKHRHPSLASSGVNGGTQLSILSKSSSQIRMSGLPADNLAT
168 GPCRs (Homo sapiens, UniProt Q9H3N8), sequence (Q9H3N8 whole entry): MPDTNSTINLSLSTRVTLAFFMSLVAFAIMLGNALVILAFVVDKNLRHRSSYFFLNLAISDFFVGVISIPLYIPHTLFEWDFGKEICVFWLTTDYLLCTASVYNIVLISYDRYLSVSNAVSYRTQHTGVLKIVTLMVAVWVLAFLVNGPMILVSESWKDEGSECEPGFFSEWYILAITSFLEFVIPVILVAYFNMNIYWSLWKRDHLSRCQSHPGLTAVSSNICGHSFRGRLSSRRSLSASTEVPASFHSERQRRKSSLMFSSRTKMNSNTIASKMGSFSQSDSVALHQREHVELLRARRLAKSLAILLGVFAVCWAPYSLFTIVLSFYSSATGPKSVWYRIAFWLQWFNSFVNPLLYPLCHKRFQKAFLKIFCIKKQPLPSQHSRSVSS

In the case of `CNC(C)C(=O)c1ccc2c(c1)OCO2` (stereo not shown) [methylone, 3,4-methylenedioxy-N-methylcathinone], the activity at 10 µM (168 GPCRs [1]; GALR2, Agonist mode, 10 uM) is reported as 1.9%, the activity at 1 µM (168 GPCRs [1]; GALR2, Agonist, 1 uM) is reported as 3.4% and the activity at 10 µM (168 GPCRs [2]; DRD4, Agonist mode, 10 uM) is reported as 9.4%. For the same molecule, the activity at 1 µM (168 GPCRs [2]; DRD4, Agonist, 1 uM) was -8%, the activity at 10 µM (168 GPCRs [3]; Agonist mode, 10 uM) was 2.2% and the activity at 1 µM (168 GPCRs [3]; Agonist, 1 uM) was -1%. The activity at 10 µM (168 GPCRs [4]; FPRL1, Agonist mode, 10 uM) was 0.1%, the activity at 1 µM (168 GPCRs [4]; FPRL1, Agonist, 1 uM) was -0.5% and the activity at 10 µM (168 GPCRs [5]; Agonist mode, 10 uM) was 6.7%. The activity at 1 µM (168 GPCRs [5]; Agonist, 1 uM) was 3.3%, the activity at 1 µM (168 GPCRs [6]; 1 uM) was -0.9% and the activity at 10 µM (168 GPCRs [6]; 10 uM) was 1%. For the same molecule, the activity at 10 µM (168 GPCRs [7]; Agonist mode, 10 uM) was -3%, the activity at 1 µM (168 GPCRs [7]; Agonist, 1 uM) was -4.4% and the activity at 10 µM (168 GPCRs [8]; VIPR1, Agonist mode, 10 uM) was 0.6%. For the same molecule, the activity at 1 µM (168 GPCRs [8]; VIPR1, Agonist, 1 uM) was 0.3%, the activity at 1 µM (168 GPCRs [9]; 1 uM) was -4% and the activity at 10 µM (168 GPCRs [9]; 10 uM) was -3%. For the same molecule, the activity at 1 µM (168 GPCRs [10]; 1 uM) was -2%, the activity at 10 µM (168 GPCRs [10]; 10 uM) was -1.8% and the activity at 1 µM (168 GPCRs [11]; 1 uM) was -1.2%. For the same molecule, the activity at 10 µM (168 GPCRs [11]; 10 uM) was -1.1%, the activity at 10 µM (168 GPCRs [12]; NPBWR2, Agonist mode, 10 uM) was 1.35% and the activity at 1 µM (168 GPCRs [12]; NPBWR2, Agonist, 1 uM) was -0.3%. The activity at 10 µM (168 GPCRs [13]; CXCR3, Agonist mode, 10 uM) was 1.6%, the activity at 1 µM (168 GPCRs [13]; CXCR3, Agonist, 1 uM) was -0.2% and the activity at 10 µM (168 GPCRs [14]; P2RY4, Agonist mode, 10 uM) was 4.1%. The activity at 1 µM (168 GPCRs [14]; P2RY4, Agonist, 1 uM) was -3.3%, the activity at 1 µM (168 GPCRs [15]; 1 uM) was -0.5% and the activity at 10 µM (168 GPCRs [15]; 10 uM) was 0.2%. The activity at 10 µM (168 GPCRs [16]; P2RY6, Agonist mode, 10 uM) was 2.4%, the activity at 1 µM (168 GPCRs [16]; P2RY6, Agonist, 1 uM) was 4.5% and the activity at 10 µM (168 GPCRs [17]; Agonist mode, 10 uM) was -7.2%. It also gave an activity at 1 µM (168 GPCRs [17]; Agonist, 1 uM) of -6.6%, an activity at 10 µM (168 GPCRs [18]; MRGPRX2, Agonist mode, 10 uM) of 0.73% and an activity at 1 µM (168 GPCRs [18]; MRGPRX2, Agonist, 1 uM) of 1.4%. It also gave an activity at 1 µM (168 GPCRs [19]; HRH4, Agonist, 1 uM) of 8.6%, an activity at 10 µM (168 GPCRs [19]; IHRH4, Agonist mode, 10 uM) of 9% and an activity at 10 µM (168 GPCRs [20]; GPR35, Agonist mode, 10 uM) of 2.5%. The activity at 1 µM (168 GPCRs [20]; GPR35, Agonist, 1 uM) was 2.2%.
